Activity calls are given as the source filed them.
Columns and labels:
[1] = biological target: T1, Rac GTPase-activating protein 1 (Homo sapiens, UniProt Q9H0H5); assay: MgcRacGAP GTPase-activating activity inhibitors, confirmation, biochemical, ADP Hunter fluorescence, primary and confirmatory (AID 624330); format: functional
T1 sequence (Q9H0H5 whole entry): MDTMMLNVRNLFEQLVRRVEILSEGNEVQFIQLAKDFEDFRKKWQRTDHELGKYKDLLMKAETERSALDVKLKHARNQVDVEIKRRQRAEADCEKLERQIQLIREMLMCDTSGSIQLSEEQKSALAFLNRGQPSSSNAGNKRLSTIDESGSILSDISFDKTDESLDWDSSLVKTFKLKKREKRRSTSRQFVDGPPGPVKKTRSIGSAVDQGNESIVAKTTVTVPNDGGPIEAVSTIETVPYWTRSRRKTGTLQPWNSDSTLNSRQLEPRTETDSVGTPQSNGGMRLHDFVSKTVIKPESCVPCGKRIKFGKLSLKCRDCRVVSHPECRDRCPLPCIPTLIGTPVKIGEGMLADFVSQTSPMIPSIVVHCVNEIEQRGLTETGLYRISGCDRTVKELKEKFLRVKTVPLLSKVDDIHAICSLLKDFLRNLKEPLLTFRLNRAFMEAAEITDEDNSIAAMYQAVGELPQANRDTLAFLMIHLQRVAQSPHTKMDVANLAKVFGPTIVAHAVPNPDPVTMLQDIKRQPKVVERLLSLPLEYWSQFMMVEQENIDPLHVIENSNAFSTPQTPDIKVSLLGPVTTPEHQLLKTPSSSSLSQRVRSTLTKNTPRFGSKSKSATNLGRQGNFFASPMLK

BJ [2] = assay: cytotoxicity toward BJ-TERT-LT-ST fibroblasts, dose response, cell-based, RAS-independent, luminescence (AID 1935); format: functional; settings: Homo sapiens;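 note: BJ fibroblasts immortalized with TERT plus LT and ST oncogenes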
BJ [3] = assay: cells; format: functional, cell-based; settings: Homo sapiens
[4] = cytotoxicity toward DRD oncogenic fibroblasts, dose response, cell-based, non-viral oncogenic, luminescence (AID 1934); format: functional; settings: Homo sapiens
BJ [5] = assay: cytotoxicity toward BJ-TERT fibroblasts, dose response, cell-based, RAS-independent, luminescence (AID 1933); format: functional; settings: Homo sapiens
[6] = biological target: T2, Calpain-2 catalytic subunit (Sus scrofa, UniProt P43367); assay: pig calpain II inhibitor potency, dose response, biochemical, fluorogenic peptide substrate (AID 1420); format: functional
T2 sequence (P43367 whole entry): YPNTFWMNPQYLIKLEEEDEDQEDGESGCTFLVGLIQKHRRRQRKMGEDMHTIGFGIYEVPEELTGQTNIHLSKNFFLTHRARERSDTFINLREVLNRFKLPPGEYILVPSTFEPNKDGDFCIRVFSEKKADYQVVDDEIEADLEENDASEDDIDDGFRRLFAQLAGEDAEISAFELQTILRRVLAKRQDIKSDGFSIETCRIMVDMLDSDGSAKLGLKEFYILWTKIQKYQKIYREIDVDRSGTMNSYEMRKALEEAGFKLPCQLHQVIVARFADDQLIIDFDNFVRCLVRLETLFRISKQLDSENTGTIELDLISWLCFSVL

[7] = HepG2 cell cytotoxicity, dose response, cytotoxicity control for Shn3 inhibitor project, CellTiter-Glo, cherry-picked (AID 624134); format: functional, cell-based
[8] = control 3'UTR Renilla luciferase suppression, dose response, counter-screen for Shn3 inhibitor project, cell-based, Clone20-Shn3RL, cherry-picked (AID 624133); format: functional
[9] = Shn3 3'UTR reporter inhibitors, dose response, cell-based, Clone20 osteoblasts, firefly luciferase, cherry-picked (AID 624132); format: functional;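 note: firefly luciferase luminescence from reporter carrying the Shn3 3'UTR in osteoblasts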
Paired box protein Pax-8 = Paired box protein Pax-8 (Homo sapiens, UniProt Q06710); assay: inhibitors of PAX8-driven TPO luciferase reporter, dose response, RMG-I cells, cherry-pick (AID 687027); format: functional, cell-based;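 note: luciferase reporter driven by Pax8 target thyroperoxidase promoter measured by SteadyGlo luminescence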
[10] = Luminescence Cell-Based Dose Retest to Confirm Inhibitors of Cancer Stem Cells. [Related pubchem assays (depositor defined):AID2717, AID2721]; format: functional; settings: Homo sapiens
INS1 = assay: beta cell apoptosis inhibitors, cytokine rescue, dose response, luminescence, retest (AID 449756); format: functional, cell-based; settings: Rattus norvegicus;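 note: cell death triggered by IL-1 beta plus TNF-alpha plus IFN-gamma mixture; protective hits raise ATP signal compared with cytokine alone wells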
[11] = biological target: Luciferin 4-monooxygenase (Photinus pyralis, UniProt P08659); assay: firefly luciferase enzyme inhibitors, dose response, biochemical, luminescence (AID 1891)
[12] = Luminescence Cell-Based Dose Confirmation HTS to Identify Inhibitors of Platelet Dense Granule Release. [Related pubchem assays: 1663 (Primary HTS), 1678 (Summary of Project)]; format: functional

Chain of Paired box protein Pax-8 (Q06710 whole entry): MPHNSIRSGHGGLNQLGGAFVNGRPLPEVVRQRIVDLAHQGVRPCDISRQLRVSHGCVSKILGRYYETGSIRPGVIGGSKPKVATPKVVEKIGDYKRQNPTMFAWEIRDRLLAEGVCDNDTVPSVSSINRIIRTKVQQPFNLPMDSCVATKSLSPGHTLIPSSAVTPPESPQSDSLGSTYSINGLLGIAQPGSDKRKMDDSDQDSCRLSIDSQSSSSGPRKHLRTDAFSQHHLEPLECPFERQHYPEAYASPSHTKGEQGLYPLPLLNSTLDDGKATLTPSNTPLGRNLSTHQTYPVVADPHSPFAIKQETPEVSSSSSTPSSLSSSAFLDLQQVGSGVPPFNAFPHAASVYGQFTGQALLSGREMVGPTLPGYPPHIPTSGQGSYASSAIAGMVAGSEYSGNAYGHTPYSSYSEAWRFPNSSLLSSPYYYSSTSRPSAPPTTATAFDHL
Chain of Luciferin 4-monooxygenase (P08659 whole entry): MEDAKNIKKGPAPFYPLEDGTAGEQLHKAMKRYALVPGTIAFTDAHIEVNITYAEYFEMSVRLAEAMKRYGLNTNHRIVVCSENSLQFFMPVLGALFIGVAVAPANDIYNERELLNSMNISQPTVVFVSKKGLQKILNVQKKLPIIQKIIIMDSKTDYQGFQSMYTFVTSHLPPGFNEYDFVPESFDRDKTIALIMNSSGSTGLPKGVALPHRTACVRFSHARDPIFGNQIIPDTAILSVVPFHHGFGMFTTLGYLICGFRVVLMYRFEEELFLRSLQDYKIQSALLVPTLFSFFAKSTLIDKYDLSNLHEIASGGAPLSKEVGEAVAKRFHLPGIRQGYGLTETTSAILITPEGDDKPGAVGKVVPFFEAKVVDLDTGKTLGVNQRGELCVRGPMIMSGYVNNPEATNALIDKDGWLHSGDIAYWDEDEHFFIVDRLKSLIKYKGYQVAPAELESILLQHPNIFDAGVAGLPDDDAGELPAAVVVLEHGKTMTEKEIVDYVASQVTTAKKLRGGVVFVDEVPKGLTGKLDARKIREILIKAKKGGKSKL

Cc1csc(=O)n1CC(=O)OC(C)C(=O)Nc1ccc(N(C)C)cc1 (stereo not given)
IC50 [1]: 51.4 µM (active)

NC(=O)N/N=C/c1cn(-c2ccccc2)nc1-c1cccs1
EC50 (BJ [2]): > 150 µM (not active)
EC50 (BJ [3]): > 150 µM (not active)
EC50 [4]: 36 µM (active)
EC50 (BJ [5]): 19.4 µM (active)

CC(C)CC(C(=O)OCC(=O)c1c(N)n(C)c(=O)n(C)c1=O)N1C(=O)C2CC=CCC2C1=O (stereo not given)
IC50 [6]: 12.9 µM (not active)

CCN(CC)S(=O)(=O)c1cccc(NC(=O)CNc2cccc(S(=O)(=O)N3CCOCC3)c2)c1
AC50 [7]: 1.08 µM (active)
AC50 [8]: 2.77 µM (active)
AC50 [9]: 0.865 µM (active)

Cc1onc(-c2ccccc2Cl)c1C(=O)N1CCC(Cc2ccccc2)CC1
AC50 [7]: 46.3 µM (active)
AC50 [8]: 4.54 µM (active)
AC50 [9]: 2.29 µM (active)

C[C@@H]1CN([C@H](C)CO)C(=O)c2cc(NS(=O)(=O)c3ccc(F)cc3)ccc2O[C@@H]1CN(C)Cc1ccc(C(F)(F)F)cc1
AC50 (Paired box protein Pax-8): 22.2 µM (active)

CCOC(=O)C1=C(CSc2nc3ccccc3s2)NC(=O)NC1c1ccc(OC)cc1 (stereo not given)
AC50 [10]: 5.99 µM (active)

CSc1nc(N)nc2c1ncn2CC(=O)N1CCN(Cc2c(C)cc(C)cc2C)CC1
AC50 [7]: 33.6 µM (active)
AC50 [8]: 2.02 µM (active)
AC50 (INS1): 1.98 µM (active)
AC50 [9]: 0.526 µM (active)

O=C(CNS(=O)(=O)c1ccccc1)N/N=C/c1ccc(O)cc1
IC50 [1]: 60 µM (active)

c1ccc(CCn2nnnc2CN2CCN(C3CCCC3)CC2)cc1
IC50 [6]: > 50 µM (not active)

Cc1ccc(NS(=O)(=O)c2cc([N+](=O)[O-])ccc2NN=C(S)Nc2cc(C)ccc2C)c(C)c1
AC50 [10]: 1.12 µM (active)
AC50 (INS1): 4.42 µM (active)

Cc1ccc(CCc2nnc(SCC(=O)Nc3cccc(Cl)c3)n2-c2ccccc2)o1
AC50 (Paired box protein Pax-8): 25.4 µM (active)

COc1cc(/C=C(/NC(=O)c2ccccc2)C(=O)Nc2ccc(O)cc2)c([N+](=O)[O-])cc1OC
IC50 [1]: 55.7 µM (active)

O=[N+]([O-])c1ccc2c(c1)C(N1CCOCC1)/C(=C/COc1ccc(Cl)cc1Cl)O2 (stereo not given)
IC50 [6]: 5.41 µM (not active)

COC(=O)c1ccccc1NC(=S)NC(=O)COc1ccccc1
IC50 [6]: 6.37 µM (not active)

COc1ccc(NC(=O)CN(c2ccccc2)S(=O)(=O)c2ccccc2)c(OC)c1
IC50 [6]: 49.3 µM (not active)

Cn1c(=O)[nH]c(=O)c2[nH]c(N(Cc3ccccc3)Cc3ccccc3)nc21
IC50 [6]: > 50 µM (not active)

C[C@@H]1CN([C@H](C)CO)S(=O)(=O)c2ccc(C#Cc3ccncc3)cc2O[C@H]1CN(C)C(=O)Nc1ccc2c(c1)OCO2
AC50 (Paired box protein Pax-8): 3.68 µM (active)

COc1cc2c(cc1OC)-c1cc(Nc3ccc(C)cc3)nc(=O)n1CC2
EC50 [11]: > 112 µM (not active)
EC50 [12]: 3.46 µM (active)

CCCNc1nc2c(c(=O)n(C)c(=O)n2C)n1Cc1cccc(C)c1
AC50 [7]: > 70 µM (inactive)
AC50 [8]: 8.85 µM (active)
AC50 [9]: 1.91 µM (active)

COc1cc(OC)cc(C(=O)N2CCN(Cc3ccccc3Br)CC2)c1
IC50 [1]: 325 µM (active)

CC(=O)c1ccc(N=C(S)N(Cc2ccccc2)C(C)C2CC2)cc1 (stereo not given)
IC50 [6]: 23.9 µM (not active)

c1ccc(CC2CCN(Cc3ccccn3)CC2)cc1
IC50 [1]: 216 µM (active)

Cn1c(NC(=O)Cc2cccs2)cc(=O)n(C)c1=O
EC50 [11]: > 112 µM (not active)
EC50 [12]: > 112 µM (not active)

C[C@@H]1CCCCO[C@H](CN(C)Cc2ccc(C(F)(F)F)cc2)[C@@H](C)CN([C@@H](C)CO)C(=O)c2cc(NS(=O)(=O)c3cccs3)ccc2O1
AC50 (Paired box protein Pax-8): 7.62 µM (active)
